Reference: US8198317B2, “Methylenedioxy phenolic compounds and their use to treat disease” (The Ohio State University Research Foundation, priority 2008, dated 2012)

Legend:
[1] = tested on: SREBP-1; assay: SREBP-1 regulation in HepG2 cells; format: cell-based, human; conditions: data not shown
From the text: (§1) Next we investigated the effect of INV-75 in regulating LDL receptor expression in the same cells using a similar protocol to assess dose and temporal dependence. FIGS. 5E and 5F depict the time course of LDL receptor expression and dose dependence in response to INV-75. […] INV-75 had no effects on SREBP-1 regulation (data not shown). Simultaneously multiple genes involved in cholesterol synthesis and regulation, apolipoprotein gene expression and expression of PCSK9 (Proprotein convertase subtilisin/kexin type 9) was tested. The latter gene is known to regulate LDL receptor expression by binding to the epidermal growth factor-like repeat A (EGF-A) domain of the low-density lipoprotein receptor (LDLR), inducing LDLR degradation. Inhibition of PSCK9 function is currently being explored as a means of lowering cholesterol levels.

[2] = tested on: PCSK9; assay: PCSK9 expression in HepG2 cells; format: cell-based, human
From the text: as §1

[3] = tested on: Watanabe Heritable Hyperlipidemic Rabbits (WHHL); assay: MRI of abdominal aortic wall volume in WHHL rabbits; format: in vivo, rabbit
Protocol: In vivo experiments on hypercholesterolemic rabbits (Watanabe Heritable Hyperlipidemic Rabbits, WHHL) were performed in 6 rabbits treated with INV-75. Four rabbits served as controls.
Animal Model: WHHL rabbits weighing approximately 2 kg at 2 months were purchased from Brown Family in Alabama and housed in the institutional Laboratory Animal Center. Rabbits at the age of 6 months were used for all experiments. Rabbits were allowed free access to water and were fed a high cholesterol chow (2% cholesterol) from Harlan Tekad TD 7251. The animal care and experimental protocols were in accordance with nationally approved guidelines. The protocol that the rabbits were subjected to is outlined in FIG. 7. INV-75 was dissolved in 90% ethanol and sprayed on the high fat chow. The diet-drug mixture was then vacuum dried overnight to remove ethanol and then used to feed rabbits.
Each animal underwent three MRI studies: the first one prior to high fat feeding (baseline prior to drug administration); the second at the mid-point of drug therapy; and the final study after 12 weeks of drug therapy (FIG. 7). […] At the end of the study, all animals underwent an MRI study for plaque volume quantification. […]
High-resolution non-invasive MRI served to assess the degree of atherosclerosis before and after the corresponding treatments. Atherosclerotic plaque in the abdominal aorta of WHHL rabbits was analyzed by in vivo MRI scans at the indicated time points (FIG. 7). […] Plaque burden was determined by manually tracing the external elastic lamina (EEM) and the luminal border (L) and determining the area within each boundary using Siemens Viewer software. Slice volume (V) was calculated as V=(EEM-L)*4.0 and total wall volume per animal was calculated using the formula TWV=Σ[(EEM-L)*4] and expressed in mm^3. TWVs for each animal at each time point were normalized for varying numbers of readable slices with the formula NWV=(TWV/n)*m; n=number of slices readable in the individual animal and m=mean number of slices readable in all animals over all time points. […]

[4] = tested on: Watanabe Heritable Hyperlipidemic Rabbits (WHHL); assay: Blood lipid profile in WHHL rabbits; format: in vivo, rabbit; conditions: end of treatment
Protocol: Hypercholesterolemia and oxidative stress occupy an important function in the progress of atherosclerosis. Lipids (cholesterol and LDL) in the blood were evaluated by analyzing the blood samples both at the baseline and the end point measurements. 1 ml of blood from an ear lobe vein was placed into K EDTA tubes at a start of high cholesterol diet and again at the time of sacrifice. All values were expressed as mean±SD. The bar graph of each group for total cholesterol and LDL cholesterol at baseline prior to the initiation of high fat chow, following high fat chow but before intervention and at the end of intervention with INV-75 and control are presented. (FIG. 14 A and FIG. 14B). […] The lack of effect may relate to the genetic model (WHHL) which has extremely high lipid values and a mutation in the LDL receptor. Since INV 75 is believed to function by increasing LDL clearance through an increase in LDL receptor expression, the lack of effect on LDL cholesterol and total cholesterol (major lipoprotein fraction in this model at baseline and in response to high fat chow feeding) is understandable.

[5] = tested on: thoracic aorta of WHHL rabbits; assay: Organ chamber experiments on thoracic aortic rings of WHHL rabbits; format: in vivo, rabbit
Protocol: Rabbits were euthanized by injection of lethal doses of pentobarbital. The ascending aortas was removed and 2 mm thoracic aortic rings were suspended in individual organ chambers filled with physiological salt solution buffer (sodium chloride, 130 mEq/L; potassium chloride, 4.7 mEq/L; calcium dichloride, 1.6 mEq/L; magnesium sulfate, 1.17 mEq/L; potassium diphosphate, 1.18 mEq/L; sodium bicarbonate, 14.9 mEq/L; EDTA, 0.026 mEq/L; and glucose, 99.1 mg/dL [5.5 mmol/L]; pH, 7.4), aerated continuously with 5% carbon dioxide in oxygen at 37° C. Vessels were allowed to equilibrate for at least 1 hour at a resting tension of 30 mN before being subjected to graded doses of agonists as described previously. The vasoconstrictor agonists included phenylephrine (PE), endothelin-1 (ET-1), or angiotensin II. Responses were expressed as a percentage of the peak response to 120 mEq/L of potassium chloride. The vessels subjected to PE were washed thoroughly and allowed to equilibrate for 1 hour before beginning experiments with acetylcholine, sodium nitroprusside (SNP) or insulin. […] Results were expressed as a percentage of pre-contraction by PE (0.1 μM). The rings exposed to acetylcholine were thoroughly washed and allowed to equilibrate for 1 hour. […] Results were expressed as a percentage of pre-contraction by PE (0.1 μM). INV-75 decreased aortic contraction by angiotensin II but had no effect on phenylephrine (FIG. 15 and FIG. 16).

CC(=O)Oc1cc2c(cc1[N+](=O)[O-])OCO2 [INV-75, 3,4-methylenedioxy-6-nitrophenyl acetate]
SREBP-1 regulation [1]: no effects | PCSK9 expression [2]: no effects | wall volume, abdominal aorta, MRI ([3]; 12 weeks): 0.37 cm^3 | Mean normalized wall volume (NWV), abdominal aorta, MRI ([3]; baseline, prior to supplementation): 0.24 cm^3 | mean plaque volume, abdominal aorta, MRI ([3]; study midpoint, 6 weeks of supplementation): 0.35 cm^3 | LDL cholesterol [4]: no differences | total cholesterol [4]: no differences | aortic contraction by angiotensin II ([5]; in words): decreased | effect on insulin relaxation ([5]; in words): marginal (non-significant effect | effect on phenylephrine response ([5]; in words): no effect | effect on response to endothelin-1 ([5]; in words): no effects | effect on SNP response ([5]; results not shown): no effects
